Holding throughout (assay type): cell-based
In one assay the test system is H1975OR. Put plainly: CCK-8 tumor cell proliferation, H1975OR. The conditions noted are these: H1975OR cells (Osimertinib resistant), 72 hours. Summed up:
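Osimertinib-resistant H1975 cells, selected by raising Osimertinib stepwise from 50 nM to 3 μM, were treated for 72 h with compound at 0.000508–10 μM. Proliferation was read by CCK-8, and IC50 came from fitting the concentration–response curve, given as mean ± SD.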

The target in another assay is AKT3 (Homo sapiens, UniProt Q9Y243). Kind of assay: Western Blot, degradation of AKT3 protein in H1975-OR cells. Set-up: endogenous in cells; host or cells: H1975-OR (osimertinib-resistant H1975). The conditions noted are these: 1000 nM, 24 hours, maximum degradation rate. Summed up: (§1)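 H1975-OR cells are Osimertinib-resistant H1975, adapted stepwise from 50 nM to 3 μM Osimertinib. Cells were treated with compound for 24 h, lysed, and immunoblotted with ECL detection. Band grayscale density was quantified.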
(In western blotting, separated proteins are transferred to a membrane and probed.)

The next assay deals with T1, AKT2 (Homo sapiens, UniProt P31751).
T1 construct: AKT1, AKT2, and AKT3 proteins in H1975-OR cells; endogenous in cells; host or cells: H1975-OR (osimertinib-resistant H1975)
Put plainly: Western Blot, degradation of AKT2 protein in H1975-OR cells. As to conditions: 1000 nM, 24 hours, maximum degradation rate. The procedure, abridged:
as §1

A further assay concerns MDA-MB-231. Put plainly: CCK-8 tumor cell proliferation, MDA-MB-231. As to conditions: Homo sapiens, MDA-MB-231 cells, 72 hours. The procedure: (§2) Tumor cells (see Table 2 to Table 5) were inoculated in 96-well plates in complete culture medium (2000-3000 cells/well). After overnight incubation, the compounds with different concentrations (0.000508 μM-10 μM) were used to treat the cells separately for 72 hours. CCK-8 (Cell Counting Kit 8, Dojindo Laboratories, Kumamoto, Japan) experiment was used to evaluate cell proliferation. GraphPad Prism 5.0 software (La Jolla, CA) was used to calculate the half-maximal inhibitory concentration (IC50) values by fitting the concentration response curve. Each IC50 value was represented as an average value±SD.

A further assay has as its system Bel-7402. Put plainly: CCK-8 tumor cell proliferation, Bel-7402. As to conditions: Homo sapiens, Bel-7402 cells, 72 hours. How it is done:
as §2

Another assay concerns the target T2, AKT1 (Homo sapiens, UniProt P31749).
T2 construct: AKT1, AKT2, and AKT3 proteins in H1975-OR cells; endogenous in cells; host or cells: H1975-OR (osimertinib-resistant H1975)
Put plainly: Western Blot, degradation of AKT1 protein in H1975-OR cells. The conditions noted are these: 1000 nM, 24 hours, maximum degradation rate. Summed up:
as §1

The subject of another assay is H1975. Kind of assay: CCK-8 tumor cell proliferation, H1975. As to conditions: Homo sapiens, NCI-H1975, H1975 cells, 72 hours. The procedure, abridged:
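Steps: plate 2000-3000 cells/well in complete medium; incubate overnight; add compound, 0.000508 μM-10 μM, 72 h; assess proliferation with CCK-8; fit curves for IC50, expressed as mean±SD.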

The next assay deals with BT-549. Put plainly: CCK-8 tumor cell proliferation, BT-549. As to conditions: Homo sapiens, BT-549 cells, 72 hours. The procedure:
as §2

In the next assay the test system is MDA-MB-453. Put plainly: CCK-8 tumor cell proliferation, MDA-MB-453. The conditions noted are these: Homo sapiens, MDA-MB-453 cells, 72 hours. How it is done:
as §2

The subject of a further assay is HCC1937. Kind of assay: CCK-8 tumor cell proliferation, HCC1937. As to conditions: Homo sapiens, HCC1937 cells, 72 hours. How it is done: as §2
Another assay concerns Huh7. Put plainly: CCK-8 tumor cell proliferation, Huh7. As to conditions: Homo sapiens, Huh-7, Huh7 cells, 72 hours. How it is done: as §2

Chain of AKT3 (Q9Y243 whole entry): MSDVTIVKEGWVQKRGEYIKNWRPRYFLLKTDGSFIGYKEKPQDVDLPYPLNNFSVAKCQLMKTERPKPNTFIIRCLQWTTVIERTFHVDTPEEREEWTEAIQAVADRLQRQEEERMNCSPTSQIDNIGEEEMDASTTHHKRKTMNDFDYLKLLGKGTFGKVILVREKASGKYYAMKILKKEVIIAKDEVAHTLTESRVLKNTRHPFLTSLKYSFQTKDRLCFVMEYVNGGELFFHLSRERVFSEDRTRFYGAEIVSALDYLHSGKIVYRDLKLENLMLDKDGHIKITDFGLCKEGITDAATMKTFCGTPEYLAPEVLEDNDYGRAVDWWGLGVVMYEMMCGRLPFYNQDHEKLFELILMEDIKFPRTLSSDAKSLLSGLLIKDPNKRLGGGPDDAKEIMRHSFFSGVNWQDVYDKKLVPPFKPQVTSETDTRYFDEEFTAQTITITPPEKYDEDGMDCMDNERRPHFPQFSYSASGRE
T2 sequence (P31749 whole entry): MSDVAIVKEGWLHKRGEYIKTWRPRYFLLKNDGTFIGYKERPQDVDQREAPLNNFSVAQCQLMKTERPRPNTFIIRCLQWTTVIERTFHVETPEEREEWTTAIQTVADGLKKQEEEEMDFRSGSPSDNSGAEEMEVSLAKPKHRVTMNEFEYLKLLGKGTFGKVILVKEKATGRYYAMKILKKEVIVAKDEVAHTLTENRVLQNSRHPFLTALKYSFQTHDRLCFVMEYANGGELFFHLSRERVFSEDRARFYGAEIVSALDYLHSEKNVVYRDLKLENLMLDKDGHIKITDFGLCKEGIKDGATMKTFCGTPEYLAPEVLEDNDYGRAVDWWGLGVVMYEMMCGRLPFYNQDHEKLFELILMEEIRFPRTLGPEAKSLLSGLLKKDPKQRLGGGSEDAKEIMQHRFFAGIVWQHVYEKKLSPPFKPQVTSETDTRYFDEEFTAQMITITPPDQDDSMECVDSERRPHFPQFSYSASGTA
T1 sequence (P31751 whole entry): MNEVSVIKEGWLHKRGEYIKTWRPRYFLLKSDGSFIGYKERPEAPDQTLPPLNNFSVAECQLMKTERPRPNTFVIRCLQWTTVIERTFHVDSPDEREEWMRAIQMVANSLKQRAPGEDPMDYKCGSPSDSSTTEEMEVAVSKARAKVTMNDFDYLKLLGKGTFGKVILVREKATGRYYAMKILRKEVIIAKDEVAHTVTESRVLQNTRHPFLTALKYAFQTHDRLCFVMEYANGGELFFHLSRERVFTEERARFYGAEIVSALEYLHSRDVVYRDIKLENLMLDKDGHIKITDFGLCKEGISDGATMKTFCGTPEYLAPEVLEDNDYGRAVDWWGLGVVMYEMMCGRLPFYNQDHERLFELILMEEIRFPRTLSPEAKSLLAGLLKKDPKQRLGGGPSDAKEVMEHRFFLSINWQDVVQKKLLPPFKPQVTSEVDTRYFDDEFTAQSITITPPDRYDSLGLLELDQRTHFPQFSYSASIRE

One may read the IC50 as the concentration needed to halve the response being measured. As a reminder, the Dmax is the largest share of the target that was removed. In the case of `COc1cc(N2CCN(CCCCCCCCCCCCNC(=O)CC34CC5CC(CC(C5)C3)C4)CC2)ccc1Nc1ncc2c(C)cc(=O)n(-c3cccc(NCC4CC4)c3)c2n1` [ZX-HYT-19, 2-((3R, 5R, 7R)-adamantan-1-yl)-N-(12-(4-(4-(8-(3-((cyclopropylmethyl)amino)phenyl)-5-methyl-7-oxy-7,8-dihydropyridino [2,3-d]pyrimidin-2-yl)amino)-3-methoxyphenyl)piperazin-1-yl) dodecyl) acetamide], the IC50 in the assay on H1975OR is 3.46 µM; in the assay with MDA-MB-231, less than 0.001 µM; in the assay on Bel-7402 it was 0.041 µM; with H1975 it was 2.29 µM; in the assay with BT-549, 0.00421 µM; in the assay on MDA-MB-453, more than 10 µM. Moreover, the greatest degradation seen (Dmax) at 1 µM on AKT3 is 28%; on AKT2 it was 0%; on AKT1, 0%.

Consider `COc1cc(N2CCN(C(=O)NC34CC5CC(CC(C5)C3)C4)CC2)ccc1Nc1ncc2c(C)cc(=O)n(-c3cccc(NC(=O)C4CC4)c3)c2n1` [ZX-HYT-64, N-((3S, 5S, 7S)-adamantan-1-yl)-4-(4-((8-(3-(cyclopropaneformamido)phenyl)-5-methyl-7-oxy-7,8-dihydropyridino [2,3-d]pyrimidin-2-yl)amino)-3-methoxyphenyl) piperazin-1-formamide], for which the half-inhibitory concentration (IC50) with MDA-MB-231 is 0.0152 µM; with Bel-7402, 0.37 µM; in the assay with HCC1937 it was 4 µM; with BT-549 it was 0.141 µM; in the assay on MDA-MB-453 it was more than 10 µM.

Turning to `COc1cc(N2CCN(C(=O)C34CC5CC(CC(C5)C3)C4)CC2)ncc1Nc1ncc2c(C)cc(=O)n(-c3cccc(NC(=O)C4CC4)c3)c2n1` [ZX-HYT-72, N-(3-(2-((6-(4-((3R, 5R, 7R)-adamantan-1-carbonyl)piperazin-1-yl)-4-methoxypyridin-3-yl)amino)-5-methyl-7-oxypyridino [2,3-d]pyrimidin-8 (7H)-yl)phenyl) cyclopropane formamide], the half-inhibitory concentration (IC50) in the assay on Huh7 came out at 3 µM; in the assay with BT-549, 0.626 µM.

Take `COc1cc(N2CCC(C(=O)NCC34CC5CC(CC(C5)C3)C4)CC2)ccc1Nc1ncc2c(C)cc(=O)n(-c3cccc(NC(=O)C4CC4)c3)c2n1` [ZX-HYT-89, N-(((3R, 5R, 7R)-adamantan-1-yl)methyl)-1-(4-((8-(3-(cyclopropaneformamido)phenyl)-5-methyl-7-oxy-7,8-dihydropyridino [2,3-d]pyrimidin-2-yl)amino)-3-methoxyphenyl) piperidin-4-formamide]: the half-inhibitory concentration (IC50) stood at 0.12 µM in the assay on Huh7 and 0.0267 µM in the assay on BT-549.

With `COc1cc(N2CC3(CN(C(=O)CC45CC6CC(CC(C6)C4)C5)C3)C2)ccc1Nc1ncc2c(C)cc(=O)n(-c3cccc(NC(=O)C4CC4)c3)c2n1` [ZX-HYT-91, N-(3-(2-((4-(6-(2-((3R,5R,7R)-adamantan-1-yl)acetyl)-2,6-diazospira [3.3]hept-2-yl))-2-methoxyphenyl)amino)-5-methyl-7-oxypyridino [2,3-d]pyrimidin-8 (7H)-yl) phenyl) cyclopropane formamide], the 50% inhibitory concentration (IC50) in the assay on Huh7 was 3 µM; in the assay on BT-549 it was 0.937 µM.

Values taken from patent US20240132492A1, “PYRIDOPYRIMIDINE-BASED COMPOUND AND APPLICATION THEREOF” (JINAN UNIVERSITY, priority 2021, published 2024).
